The source of these data is patent publication US20140127287A1, “LIPOSOME-ENCAPSULATED HYDROGELS FOR USE IN A DRUG DELIVERY SYSTEM” (Wisconsin Alumni Research Foundation (WARF), priority 2011, published 2014).

The subject of series [1] is breast carcinoma MDA-MB-231 cells. Kind of series: Resazurin-based metabolic cytotoxicity assay, MDA-MB-231. Type of series: cell-based, human. To be noted: 24 hours exposure, then 24 hours in DMEM; 17-DMAPG equivalents. How it is done:
(§1) For cell culture, cells were maintained at 37° C., 5% CO2 and 95% humidity in Dulbecco's modified Eagle's medium (DMEM) supplemented with 10% (v/v) heat inactivated fetal bovine serum (FBS), 2 mM L-glutamine and 100 unit/mL penicillin and 1000 μg/mL streptomycin. Cytotoxicity of 17-DMAPG loaded lipogels was assessed in human prostate PC-3 cancer cells and breast carcinoma MDA-MB-231 cells by resazurin-based metabolic assay. Briefly, cells were seeded in 96-well plates with 5,000 cells per well and allowed to adhere for 24 hours prior to the assay. Cells were exposed to various doses (0-35 μM on 17-DMAPG basis) of free 17-DMAPG, lipogel loaded 17-DMAPG and lipogel alone for 24 hours at 37° C., followed by washing with PBS, and maintaining in DMEM medium with 10% FBS for additional 24 hours. 10 μl of resazurin PBS solution (440 μM) was added into each well and incubated for a further 2 hours. The fluorescence was measured with a microplate reader (SpectraMax Gemini XS, Molecular Devices) with excitation at 560 nm and emission at 590 nm using wells without cells as blanks. […] The reading taken from the wells with cells cultured with control medium was used as 100% viability. The cell viability was calculated as Esample/Econtrol×100%. Based on the results of the test, the IC50 values were calculated on GraphPad Prism 5 Software (San Diego Calif., USA).

Series [2] can be described thus: Heat stability of 17-DMAPG during incubation, HPLC analysis. It counts as physicochemical. The following applies: extended incubation at 65° C.
The subject of series [3] is human prostate PC-3 cancer cells. Kind of series: Resazurin-based metabolic cytotoxicity assay, PC-3. Type of series: cell-based. To be noted: 24 hours exposure, then 24 hours in DMEM; 17-DMAPG equivalents. How it is done:
as §1

The next series can be described thus: pKa of active agents. Type of series: physicochemical. The following applies: pH 6.5.

In the case of `CO[C@H]1/C=C\C=C(/C)C(=O)NC2=CC(=O)C(NCCCN(C)C)=C(C[C@@H](C)C[C@H](OC)[C@H](O)[C@@H](C)/C=C(\C)[C@@H]1OC(N)=O)C2=O` [17-DMAPG, 17-(dimethylaminopropylamino)-17-demethoxygeldanamycin], the IC50 in series [1] was found to be 152 nM; in series [3] it was 807 nM. Moreover, in series [2], the “heat stability (in words)” value is recorded as “heat instability”. In addition, the “fraction protonated and positively charged” value in “pKa of active agents” is listed as “approximately 99%”.
